{
  "source": "patent US20230218573A1",
  "about": "“INDOLE COMPOUNDS FOR THE TREATMENT OF NEURODEGENERATIVE DISEASES” (GALYAN BIO, INC., priority 2020, published 2023)",
  "key": {"[1]": {"assay": "Pharmacokinetics, plasma and brain concentration by UHPLC-TOF", "format": "in vivo, mice", "details": "mouse, in vivo", "method": "Compound 22 is an analog of Compound 7. […] Compound 22 pharmacokinetic properties was measured in three male CD1 mice at several timepoints. Compound 22 was dissolved in 10% DMSO, 10%, cremaphor, and 80% saline. The tested dose was 33.3 mg/kg body weight. Brain tissue was homogenized and protein precipitated with acetonitrile. […] As such, Compound 22 was selected for testing in an animal model of HD the R6/2 model. As described below, Compound 22 and its analogs were further tested for their effects on striatal cell viability and effects of mHTT levels."}, "[2]": {"test_system": "STHdh 111/111 striatal cells", "assay": "Cell viability (CellTiter Glo) of heat shocked STHdh 111/111 striatal cells", "format": "cell-based, mouse", "details": "Mus musculus, STHdh 111/111; 10 µM; 48 hours treatment; read-out: Cell Viability striatal cells 3h heat shocked", "procedure": "Cell culture - ST HDH Q111/111 (CH00095, Coriell Institute) striatal derived cell line were grown at 33° C. in DMEM (Sigma-Aldrich), supplemented with 10% fetal bovine serum (FBS), 1% Penicillin-Streptomycin (ThermoFisher Scientific), and 0.4 mg/ml G418 (Geneticin; Invitrogen). ST HDH Q111/111 are mouse striatal cells with polyQ length of 1111.\n(§4) Pre-Treatment of striatal cell line - First the medium was removed and new DMEM (DMEM, high glucose, HEPES, no phenol red) medium, supplemented with 10% fetal bovine serum (FBS), 1% Penicillin-Streptomycin, containing 10 µM compound was added. The cells were incubated at 33° C. for 24 hours.\n(§5) Heat shock - Cells were heat shocked for 3 hours at 41° C.\n(§6) Treatment - Medium was removed and new DMEM (DMEM, high glucose, HEPES, no phenol red) medium, supplemented with 1% fetal bovine serum (FBS), 1% Penicillin-Streptomycin, containing 10 µM compound was added. The cells were incubated at 33° C. for 48 hours.\nCell Viability - Cell viability was measured according to manufacturer recommendations with CellTiter Glo (Promega). 96-well plates for used either for cell viability determination or cell staining."}, "Exon1 Q46": {"test_system": "Exon1 Q46", "assay": "Circular dichroism of Exon1 Q46, predominantly α-helical state", "format": "biochemical", "details": "Exon1 Q46; conc. compound 0.647 µM", "method": "Protein samples were diluted with buffer to 7.5 µM prior to Circular Dichroism (CD) measurements. Measurements were conducted at room temperature.\nFour spectra at each measurement were taken every 1 nm from 200 to 260 nm, scanning at 50 nm/min with an averaging time of 1 sec. Spectra were obtained from samples in 20 mM phosphate, pH 7.4. Ten scans were averaged for each sample spectrum\nSingle-wavelength readings at 222 nm were obtained. After subtraction of the Trx contribution, the α-helical content of Httex1 was estimated from its mean residue ellipticity (MREHttex1) at 222 nm. This calculation was conducted as described by Bravo-Arredondo (Bravo-Arredondo, J.M. et al., J Biol Chem. 2018 Dec 21;293(51):19613-19623).\nMRE Exon-1 […] and Q46 (Mean Residue Ellipticity) was measured every 1 sec for 300 sec; the 301 readings for each sample were averaged and MRE Trx subtracted. The number of amino acids in each sample to experience a change in helicity was estimated using a previously developed helix-coil transition model, which gave the change in fraction of helicity (ΔfHelix) by the following equation: […]\nwhere MRE Exon1 Q26 or Q46 (MREHttex1 in the formula) describes the helix-coil transition, obtained from the difference between MRE Eon1 Q26 or Q46 at 222 nm of the fusion protein at the given temperature (in our case 37° C.) and the product of MRE Trx at 222 nm at the same temperature and the fraction of residues comprised by Trx in that particular construct, and\nIn order to calculate an equilibrium of the two states model, percent α-helicity was calculated using the relation of MREHttex1 = 0 and -34700 (deg cm^2 dmol^-1) for 0% and 100% helicity, respectively.\nThe CD measurements protocol for Compound 101 was the same as outlined above except that from 206 nm - 210 nm and 220 nm - 224 nm, the step size was 0.2 nm, and the bandwidth was 1 nm."}, "phospho-Tau (Ser396)": {"test_system": "phospho-Tau (Ser396)", "assay": "Phospho-Tau (Ser396) levels in STHdh 7/7 cells by immunocytochemistry", "format": "cell-based, mouse", "method": "(§1) Effect of Compound 4 on Phospho-Tau (Ser396) levels - ST HDH Q7/7 (CH00097, Coriell Institute) striatal derived cell line from a knock in transgenic mouse containing HTT loci with a humanized Exon 1 containing 7 polyglutamine repeats. Immunocytochemistry was conducted as described in Example 33 with the exception that instead of 3B5H10 antibody for staining mHTT, phospho-Tau (Ser396) polyclonal antibody (ThermoFisher, Catalog 44-752G) was used to stain phospho-Tau (Ser396)."}, "phospho-Tau (Ser404)": {"test_system": "phospho-Tau (Ser404)", "assay": "Phospho-Tau (Ser404) levels in STHdh 7/7 cells by immunocytochemistry", "format": "cell-based, mouse", "source_text": "as §1, with “repeats. Diffuse mHTT quantified with immunocytochemistry” for “repeats. Immunocytochemistry was conducted”, “phospho-Tau (Ser404)” for “phospho-Tau (Ser396)”, “Catalog 44-758G)” for “Catalog 44-752G)”, “phospho-Tau (Ser396) and no heat shock was used.” for “phospho-Tau (Ser396).”"}, "STHdh 111/111": {"test_system": "STHdh 111/111", "assay": "Morphology of striatal cells expressing mutated huntingtin", "format": "cell-based, mouse", "details": "versus not treated STHdh 111/111"}, "zebrafish larvae [3]": {"test_system": "zebrafish larvae", "assay": "Zebrafish MPP+ motility model, photomotor assay", "format": "in vivo", "method": "MPP+ selectively targets dopaminergic neurons; the putative mechanism is induction of K+ efflux, cell membrane hyperpolarization and inhibition of neuronal firing. This ultimately leads to an inhibition of complex I, a decrease in ATP production and promotion of the generation of reactive oxygen species upon accumulation in the mitochondria (3). The observed phenotype following exposure to 500 µM from 24 hours post fertilization (hpf) to 120 hpf is characterized by a decrease in movement during lights-on phases of a photomotor assay. In unpublished data below, representative locomotor perturbations of the distance moved and movement frequency is shown.\n(§2) Six groups were included in each experiment. Immediately after spawning, 40 embryos per group were allocated to a 24-well plate and system water (solvent) was added to all wells. For assessment of neuroprotective potential, Compound 4 was added for a final concentration of 1, 10 and 20 µM (column 4-6). From the following day at 24 hpf, Compound 4 was co-incubated with 500 µM MPP+. MPP+ was prepared immediately prior to incubation and solutions were changed daily. At 120 hpf, drug treatment and MPP+ exposure was ceased and a 3X wash was performed with system water. Larvae were then relocated to 96-well plates for behavioral recording and placed in a separate recording room for 24-hour acclimation. Prior to behavioral recording, wells were fully replenished system water.\n(§3) Naive group was exposed to solvent only. Vehicle group was exposed to solvent and vehicle corresponding to the vehicle of 20 µM drug solution (0.02% DMSO). MPP+ positive control was exposed to solvent and 500 µM MPP+. All compound groups were treated with the respective vehicle and respective concentration of compound 4.\nBehavioral data was recorded from 1 p.m. on 6 dpf until shortly after wakening on 7 dpf. The recording consisted of a photomotor assay in which lights switch off and on in 30-minute intervals between 1 p.m. and 6 p.m., producing a consistent photomotor response. […] Upon lights being turned on again, the larvae cease movement followed by a return to baseline. This cycle is repeated five times. Following the last lights-off phase, constant illumination is presented until lights turn off at 10 p.m. for the night. Lights turn on again at 8 a.m. the following day.\nAverage movement frequency was measured during 30-minute lights-on phases of photomotor assay. Movement bouts were defined as initiated when velocity exceeded a threshold of 2 mm/s and ceased when velocity fell below 1 mm/s.\nDistance moved (mm) was defined as the average distance moved during 30-minute lights-on phases of photomotor assay.\nData was obtained using EthoVision XT (Version 11.5.2016, Noldus) and exported to Microsoft Excel for data analysis. […]"}, "zebrafish larvae [4]": {"test_system": "zebrafish larvae", "assay": "Zebrafish MPP+ model, sleep parameters", "format": "in vivo", "details": "co-incubation with MPP+", "method": "as §2, §3\nBehavioral data was recorded from 1 p.m. on 6 dpf until shortly after wakening on 7 dpf. The recording consisted of a photomotor assay in which lights switch off and on in 30-minute intervals between 1 p.m. and 6 p.m., producing a consistent photomotor response. […]"}, "mHTT": {"biological_target": "mHTT (Mus musculus, UniProt P42859, DEL28-30/G47A/INS49LLPQPQPP/INS60VA/L56P/P40L)", "sequence (P42859 with tags, fused parts or gaps DEL28-30/P40L/G47A/INS49LLPQPQPP/L56P/INS60VA)": "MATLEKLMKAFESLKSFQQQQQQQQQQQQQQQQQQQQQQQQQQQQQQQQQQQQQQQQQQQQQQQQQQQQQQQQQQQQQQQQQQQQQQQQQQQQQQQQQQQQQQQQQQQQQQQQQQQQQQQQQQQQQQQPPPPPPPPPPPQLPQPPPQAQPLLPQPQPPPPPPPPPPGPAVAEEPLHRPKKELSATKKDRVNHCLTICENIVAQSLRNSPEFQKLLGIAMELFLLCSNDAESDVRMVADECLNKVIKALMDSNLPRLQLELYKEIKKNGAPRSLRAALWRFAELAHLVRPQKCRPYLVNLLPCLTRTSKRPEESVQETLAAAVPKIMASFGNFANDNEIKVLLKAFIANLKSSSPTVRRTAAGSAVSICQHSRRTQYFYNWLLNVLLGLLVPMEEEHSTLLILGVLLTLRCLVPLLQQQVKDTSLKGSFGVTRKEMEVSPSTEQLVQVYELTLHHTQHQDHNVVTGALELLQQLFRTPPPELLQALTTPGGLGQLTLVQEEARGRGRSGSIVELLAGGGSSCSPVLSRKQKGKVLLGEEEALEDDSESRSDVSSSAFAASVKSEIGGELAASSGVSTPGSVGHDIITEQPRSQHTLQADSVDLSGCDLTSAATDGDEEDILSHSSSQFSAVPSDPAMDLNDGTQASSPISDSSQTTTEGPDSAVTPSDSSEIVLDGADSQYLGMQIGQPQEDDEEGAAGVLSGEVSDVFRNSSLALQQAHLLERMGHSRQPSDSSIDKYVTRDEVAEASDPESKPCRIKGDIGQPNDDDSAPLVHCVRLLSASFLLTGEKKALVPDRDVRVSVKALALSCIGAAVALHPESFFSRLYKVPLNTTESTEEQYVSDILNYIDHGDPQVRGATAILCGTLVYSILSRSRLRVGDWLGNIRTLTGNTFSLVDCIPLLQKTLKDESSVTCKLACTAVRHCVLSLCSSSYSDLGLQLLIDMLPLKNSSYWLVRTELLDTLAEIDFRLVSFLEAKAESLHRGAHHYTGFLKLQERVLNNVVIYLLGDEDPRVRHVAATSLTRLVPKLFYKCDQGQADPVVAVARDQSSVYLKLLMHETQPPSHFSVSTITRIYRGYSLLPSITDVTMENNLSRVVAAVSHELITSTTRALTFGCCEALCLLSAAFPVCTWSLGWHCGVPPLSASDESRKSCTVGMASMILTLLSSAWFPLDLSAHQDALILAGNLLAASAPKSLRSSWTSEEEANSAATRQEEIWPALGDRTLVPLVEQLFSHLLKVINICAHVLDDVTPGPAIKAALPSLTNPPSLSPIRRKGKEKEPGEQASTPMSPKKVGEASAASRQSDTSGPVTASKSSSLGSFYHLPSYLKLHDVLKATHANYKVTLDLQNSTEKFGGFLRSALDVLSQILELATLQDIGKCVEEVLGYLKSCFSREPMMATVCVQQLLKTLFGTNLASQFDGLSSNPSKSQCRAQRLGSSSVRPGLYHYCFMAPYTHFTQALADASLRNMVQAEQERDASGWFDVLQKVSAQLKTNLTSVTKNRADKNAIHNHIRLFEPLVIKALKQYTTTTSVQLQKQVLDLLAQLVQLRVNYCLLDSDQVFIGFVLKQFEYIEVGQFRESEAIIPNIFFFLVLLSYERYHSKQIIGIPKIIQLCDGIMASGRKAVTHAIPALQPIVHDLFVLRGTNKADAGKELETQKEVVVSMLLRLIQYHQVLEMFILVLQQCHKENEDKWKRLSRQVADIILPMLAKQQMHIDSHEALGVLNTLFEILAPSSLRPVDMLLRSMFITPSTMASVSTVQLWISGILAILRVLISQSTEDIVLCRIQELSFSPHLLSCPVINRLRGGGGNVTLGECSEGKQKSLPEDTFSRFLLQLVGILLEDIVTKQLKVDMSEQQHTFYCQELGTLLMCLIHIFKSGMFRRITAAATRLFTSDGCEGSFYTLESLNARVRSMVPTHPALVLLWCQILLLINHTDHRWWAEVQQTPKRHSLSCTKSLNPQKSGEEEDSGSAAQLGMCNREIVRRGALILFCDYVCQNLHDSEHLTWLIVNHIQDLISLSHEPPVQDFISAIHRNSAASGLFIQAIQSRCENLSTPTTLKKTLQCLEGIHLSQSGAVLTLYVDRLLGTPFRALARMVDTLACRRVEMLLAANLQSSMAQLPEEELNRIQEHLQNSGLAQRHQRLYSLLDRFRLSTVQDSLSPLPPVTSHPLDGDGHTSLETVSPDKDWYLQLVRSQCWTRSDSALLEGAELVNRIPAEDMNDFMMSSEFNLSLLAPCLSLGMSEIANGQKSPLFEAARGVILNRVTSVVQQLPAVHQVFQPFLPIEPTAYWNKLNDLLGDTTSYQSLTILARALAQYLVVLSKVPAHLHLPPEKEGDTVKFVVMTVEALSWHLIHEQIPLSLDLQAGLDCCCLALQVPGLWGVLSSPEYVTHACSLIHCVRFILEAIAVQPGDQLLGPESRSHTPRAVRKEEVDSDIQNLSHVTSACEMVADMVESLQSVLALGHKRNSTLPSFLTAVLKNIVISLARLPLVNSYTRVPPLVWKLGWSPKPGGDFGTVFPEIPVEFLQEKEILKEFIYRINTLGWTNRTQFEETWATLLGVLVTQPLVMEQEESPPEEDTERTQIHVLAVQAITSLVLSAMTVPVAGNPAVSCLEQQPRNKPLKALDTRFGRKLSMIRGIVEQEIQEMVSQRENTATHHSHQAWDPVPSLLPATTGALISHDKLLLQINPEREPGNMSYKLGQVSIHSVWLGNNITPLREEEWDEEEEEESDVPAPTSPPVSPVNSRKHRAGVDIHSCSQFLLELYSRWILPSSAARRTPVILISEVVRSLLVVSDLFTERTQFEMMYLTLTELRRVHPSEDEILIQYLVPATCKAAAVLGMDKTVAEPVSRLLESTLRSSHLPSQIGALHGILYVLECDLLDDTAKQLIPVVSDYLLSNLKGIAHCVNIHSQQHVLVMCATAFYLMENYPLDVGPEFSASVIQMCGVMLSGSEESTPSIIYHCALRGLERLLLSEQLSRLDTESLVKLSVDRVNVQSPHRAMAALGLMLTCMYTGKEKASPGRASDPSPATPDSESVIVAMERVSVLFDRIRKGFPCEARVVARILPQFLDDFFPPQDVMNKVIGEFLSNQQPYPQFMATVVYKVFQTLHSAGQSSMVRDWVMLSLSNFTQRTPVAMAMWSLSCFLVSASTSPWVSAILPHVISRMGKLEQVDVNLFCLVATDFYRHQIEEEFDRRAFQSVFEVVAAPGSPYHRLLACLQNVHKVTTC", "assay": "Diffuse mHTT levels in heat shocked STHdh 111/111 striatal cells by immunocytochemistry", "procedure": "as §4, §5, §6\nStaining - Cells were permeabilized with 0.3% Triton X-100 in 4° C. PBS (pH 7.4 from ThermoFisher) for 10 minutes. Then the cells were washed two times with 4° C. PBS. Subsequently, cells are blocked with 3% NGS (normal goat serum from Thermo Fisher) in 4° C. PBS for 1 hour. Cells were incubated with primary antibodies in blocking buffer (PBS, 3% NGS, 0.02% NaN3) over night at 4° C. Primary antibodies were mouse antipolyglutamine monoclonal antibody 3B5H10 (Sigma-Aldrich) at 1:250 dilution and Guinea Pig anti-MAP2 polyclonal antibody (Synaptic Systems) at 1:500 dilution. 3B5H10 binds to diffuse mHTT. Diffuse mHTT is a monomeric and small oligomeric mHTT.\nCells were washed 2 times with 4° C. PBS, and then incubated with secondary antibodies at 1:2000 dilution in blocking buffer for 1 hour at room temperature. […] Cells were washed 2 times with 4° C. PBS, and then the nuclei were counterstain with DAPI (ThermoFisher) for 10 min at room temperature in the dark. Cells were washed 2 times with 4° C. PBS, and then 4° C. PBS was added to cells and then images were acquired.\nFluorescence Imaging - Imaging sessions were performed on a confocal microscope system (Carl Zeiss Microscopy) equipped with a dual spinning disk unit (Yokogawa). All components of the imaging system were controlled via the ZEN 2 software suite (Carl Zeiss Microscopy). The laser lines used were 405 nm, 488 nm and 639 nm to excite DAPI or the respective fluorophores. […] Nested t test was performed to calculate the significance amongst repeated measurements using GraphPad Prism software.\nEC 50 value was determined with non-linear regression."}, "[5]": {"details": "1, 10 and 20 µM with 500 µM MPP+"}},
  "note": "“Also recorded” adds a separate entry of the source.",
  "data": [
    {"molecule": "CCc1c(C)[nH]c2ccc(C(=O)NCCN(CC)CC)cc12", "note": "[Compound 4, N-(2-(diethylamino)ethyl)-3-ethyl-2-methyl-1H-indole-5-carboxamide]", "values": [
      {"measurement": "crossing of the blood brain barrier", "setting": "[1]", "result": "can cross the blood brain barrier"},
      {"measurement": "viability at 10 µM", "setting": "[2]", "result": 125, "unit": "%"},
      {"measurement": "Fraction Helix fH (%)", "setting": "Exon1 Q46", "result": 20.0, "unit": "%"},
      {"measurement": "Phospho-Tau (Ser396) reduced by", "setting": "phospho-Tau (Ser396); STHdh 7/7, 10 µM, in comparison to untreated cells", "result": 26.3, "unit": "%"},
      {"measurement": "Phospho-Tau (Ser396) reduction", "setting": "phospho-Tau (Ser396); STHdh 7/7 exposed to 10 mM ammonium chloride, 5 µM", "result": "could not reduce"},
      {"measurement": "Phospho-Tau (Ser396) reduction", "setting": "phospho-Tau (Ser396); STHdh 7/7 exposed to ammonium chloride, 10 µM", "result": 15.2, "unit": "%"},
      {"measurement": "Phospho-Tau (Ser404) reduced by", "setting": "phospho-Tau (Ser404); STHdh 7/7, 10 µM, no heat shock, in comparison to untreated cells", "result": 40, "unit": "%"},
      {"measurement": "Phospho-Tau (Ser404) reduction", "setting": "phospho-Tau (Ser404); STHdh 7/7 exposed to 10 mM ammonium chloride", "result": "could not reduce"},
      {"measurement": "morphology of STHdh 111/111", "setting": "STHdh 111/111", "result": "improved cell viability, dendrite outgrowth and increased cell size"},
      {"measurement": "distance moved, drug treatment groups compared to MPP+", "setting": "zebrafish larvae [3]; [5]", "result": "no significant difference"},
      {"measurement": "movement frequency, drug treatment groups compared to MPP+", "setting": "zebrafish larvae [3]; [5]", "result": "no significant difference"},
      {"measurement": "overall movement during assessment of neuroprotection", "setting": "zebrafish larvae [3]; concentrations ~10 µM and ~1 µM with MPP+", "result": "subtle increase in overall movement"},
      {"measurement": "sleep parameters (sleep fragmentation, sleep ratio, velocity, wake bout duration, sleep bout duration)", "setting": "zebrafish larvae [4]", "result": "No statistically significant difference; also recorded: does neither reduce nor increase sleep"},
      {"measurement": "EC50", "setting": "mHTT", "result": 130, "unit": "nM"},
      {"measurement": "Diffuse mHTT reduced by", "setting": "mHTT; STHdh 111/111, in comparison to untreated cells", "result": 68, "unit": "%"}
    ]}
  ]
}
